Measurements reported in the NIST ThermoML archive (doi:10.1016/j.tca.2014.03.043).
Values joined by “and” are separate entries in the source; they are usually repeats but may differ in a detail not shown here. Equal entries are not always repeated.

Assay: molar heat capacity at constant pressure
Details: 101.33 kPa, Liquid, Small sample (50 mg) DSC

OCCC1CCCCC1 [2-cyclohexylethanol]
Details | molar heat capacity at constant pressure
253.5 K | 222 J/K/mol and 223.33 J/K/mol
256.05 K | 226.07 J/K/mol and 226.32 J/K/mol
260.65 K | 229.4 J/K/mol and 229.73 J/K/mol
265.75 K | 233.72 J/K/mol and 233.97 J/K/mol
270.86 K | 238.29 J/K/mol and 238.21 J/K/mol
275.96 K | 242.12 J/K/mol and 242.2 J/K/mol
281.07 K | 246.19 J/K/mol and 246.44 J/K/mol
286.17 K | 251.6 J/K/mol and 251.26 J/K/mol
291.28 K | 256.67 J/K/mol and 256.42 J/K/mol
296.38 K | 261.91 J/K/mol and 262.07 J/K/mol
301.48 K | 267.56 J/K/mol and 266.98 J/K/mol
306.59 K | 273.13 J/K/mol and 273.21 J/K/mol
311.7 K | 278.7 J/K/mol and 279.03 J/K/mol
316.81 K | 284.35 J/K/mol
321.91 K | 290.17 J/K/mol and 289.93 J/K/mol
327.01 K | 295.5 J/K/mol and 295.58 J/K/mol
332.12 K | 301.15 J/K/mol and 300.82 J/K/mol
337.22 K | 307.39 J/K/mol and 306.64 J/K/mol
342.33 K | 313.87 J/K/mol and 312.71 J/K/mol
347.43 K | 318.61 J/K/mol and 317.95 J/K/mol
352.54 K | 323.27 J/K/mol and 322.6 J/K/mol

C=CCO [2-propenol]
Details | molar heat capacity at constant pressure
273.41 K | 134.94 J/K/mol and 134.61 J/K/mol
278.52 K | 137.19 J/K/mol and 137.35 J/K/mol
283.62 K | 139.43 J/K/mol and 139.18 J/K/mol
288.72 K | 141.93 J/K/mol and 141.68 J/K/mol
293.83 K | 144.34 J/K/mol and 144.17 J/K/mol
298.93 K | 146.67 J/K/mol and 146.5 J/K/mol
304.04 K | 149.16 J/K/mol and 149.08 J/K/mol
309.14 K | 152.32 J/K/mol and 151.82 J/K/mol
314.25 K | 154.82 J/K/mol and 154.4 J/K/mol
319.35 K | 157.23 J/K/mol and 157.06 J/K/mol
324.46 K | 160.14 J/K/mol and 160.3 J/K/mol

OCCCC1CCCCC1 [3-cyclohexyl-1-propanol]
Details | molar heat capacity at constant pressure
258.09 K | 254.42 J/K/mol and 254.84 J/K/mol
263.2 K | 258.91 J/K/mol and 258.66 J/K/mol
268.3 K | 263.07 J/K/mol and 262.65 J/K/mol
273.41 K | 267.64 J/K/mol and 267.48 J/K/mol
278.51 K | 272.22 J/K/mol and 271.97 J/K/mol
283.62 K | 277.37 J/K/mol and 277.12 J/K/mol
288.72 K | 282.28 J/K/mol
293.83 K | 288.01 J/K/mol and 287.76 J/K/mol
298.93 K | 293.5 J/K/mol and 293.33 J/K/mol
304.04 K | 299.74 J/K/mol
309.14 K | 305.72 J/K/mol and 305.64 J/K/mol
314.25 K | 311.63 J/K/mol and 311.54 J/K/mol
319.35 K | 317.61 J/K/mol and 317.7 J/K/mol
324.46 K | 323.6 J/K/mol and 323.85 J/K/mol
329.56 K | 330.5 J/K/mol and 330 J/K/mol
334.67 K | 335.9 J/K/mol and 336.24 J/K/mol
339.77 K | 342.31 J/K/mol and 342.39 J/K/mol
344.88 K | 348.46 J/K/mol and 348.63 J/K/mol
349.98 K | 354.28 J/K/mol and 354.61 J/K/mol
355.09 K | 360.35 J/K/mol and 360.02 J/K/mol

OCC1CCCCC1 [cyclohexylmethanol]
Details | molar heat capacity at constant pressure
258.09 K | 199.13 J/K/mol and 198.88 J/K/mol
263.2 K | 202.87 J/K/mol and 202.54 J/K/mol
268.3 K | 207.03 J/K/mol and 206.61 J/K/mol
273.41 K | 211.52 J/K/mol and 210.94 J/K/mol
278.51 K | 215.68 J/K/mol and 215.18 J/K/mol
283.62 K | 220.83 J/K/mol and 219.83 J/K/mol
288.72 K | 225.32 J/K/mol and 224.74 J/K/mol
293.83 K | 230.56 J/K/mol and 229.98 J/K/mol
298.93 K | 236.46 J/K/mol and 235.55 J/K/mol
304.04 K | 242.28 J/K/mol and 241.62 J/K/mol
309.14 K | 247.94 J/K/mol and 247.36 J/K/mol
314.25 K | 254.26 J/K/mol and 253.34 J/K/mol
319.35 K | 260.24 J/K/mol and 259.49 J/K/mol
324.46 K | 265.98 J/K/mol and 265.56 J/K/mol
329.57 K | 271.38 J/K/mol and 270.55 J/K/mol
334.67 K | 276.54 J/K/mol and 275.87 J/K/mol
339.77 K | 281.78 J/K/mol and 280.86 J/K/mol
344.88 K | 287.35 J/K/mol and 286.52 J/K/mol
349.98 K | 292.34 J/K/mol and 291.51 J/K/mol
355.09 K | 296.83 J/K/mol and 296.33 J/K/mol
